We go through 2 compounds from US6699877B2 (Gruenenthal GmbH, priority 2000, dated 2004).

The target in test [1] is T1, glycine binding site of the NMDA receptor channel (Rattus norvegicus, UniProt P35439).
T1 construct: from tissue; host or cells: rat brain cortex and hippocampus membrane homogenate
Description: Receptor binding, displacement of (3H)-MDL 105.519 on rat cerebral membrane homogenates. As to conditions: 10 μmol/l test substance; 1 nmol/l (3H)-MDL 105.519; read-out: Displacement (%, 10 μmol/l) of radioactive ligand from specific binding. On the procedure: Receptor Binding (Glycine Binding Site of the NMDA Receptor Channel)
Experiments to determine the affinity of the compounds according to the invention of Formula I to the glycine binding site of the NMDA receptor channel were carried out on cerebral membrane homogenates (homogenate of Cortex- and Hippocampus-Areal from the brain of male rats, Wistar strain) (B. M. Baron, B. W. Siegel, B. L. Harrison, R. S. Gross, C. and P. Towers, Journal of Pharmacology and Experimental Therapeutics, Vol. 279, p. 62, 1996).
For this purpose, Cortex and Hippocampus from freshly removed rats' brains were dissected, homogenized in 5 mmol/l TRIS-acetate buffer, 0.32 mol/l sacharose pH 7.4 (10 ml/g fresh weight) with a Potter homogenizer (made by Braun/Melsungen, 10 piston strokes at 500 rpm) while cooling with ice and subsequently centrifuged for 10 minutes at 1,000 g and 4° C. The first supernatant material was collected and the sediment homogenized again with […] TRIS-acetate buffer, 0.32 mol/l safcharose pH 7.4 (5 ml/g original fresh weight) using the Potter homogenizer (10 piston strokes at 500 rpm) while cooling with ice and centrifuged for 10 minutes at 1,000 g and 4° C. The resultant supernatant material was combined with the supernatant material from the first centrifugation and centrifuged at 17,000 g for 20 minutes at 4° C. The supernatant material after this centrifugation was discarded, the membrane sediment taken up with 5 mmol/l TRIS-acetate buffer pH 8.0 (20 ml/g original fresh weight) and homogenized with 10 piston strokes at 500 rpm.
The membrane homogenate was then incubated for 1 hour at 4° C. and centrifuged for 30 minutes at 50,000 g and 4° C. The supernatant material was discarded and the centrifuge tube with the membrane sediment sealed with parafilm and frozen for 24 hours at −20° C. The membrane sediment was thawed on the following day, taken up with ice-cold 5 mmol/l TRIS-acetate buffer, 0.1% saponin (w/v) pH 7.0 (10 ml/g original fresh weight), homogenized with 10 piston strokes at 500 rpm and subsequently centrifuged for 20 minutes at 50,00 g and 4° C. The resultant supernatant material was discarded, the sediment taken up in a small volume with 5 mmol/l TRIS-acetate buffer pH 7.0 (about 2 ml/g original fresh weight) and homogenized again with 10 piston strokes at 500 rpm. After determining the protein content, the membrane homogenate was adjusted to a protein concentration of 10 mg protein/ml using 5 mmol/l TRIS-acetate buffer pH 7.0 and frozen in aliquots for testing.
For the receptor binding test, aliquots were thawed, diluted 1:10 with 5 mmol/l TRIS-acetate buffer pH 7.0, homogenized with 10 piston strokes at 500 rpm using the potter homogenizer (10 piston strokes at 500 rpm) while cooling with ice and centrifuged for 60 minutes at 55,000 g at 4° C. The supernatant material was decanted, the membrane sediment adjusted to a protein concentration of 1 mg/ml with ice-cold 50 mmol/l TRIS-acetate buffer pH 7.0, homogenized again with 10 piston strokes at 500 rpm and kept in suspension in the ice bath while stirring on a magnetic stirrer. 100 μl of this membrane homogenate per 1 ml of feedstock was used in each case in the receptor binding test (0.1 mg protein/ml in the final batch).
In the binding test, 50 mmol/l TRIS-acetate buffer pH 7.0 was used as buffer and 1 nmol/l (^3H)-MDL 105.519 (B. M. Baron et al 1996) was used as radioactive ligand. The proportion of unspecific binding was determined in the presence of 1 mmol/l glycine.
In further batches, the compounds according to the invention were added in concentration series and the displacement of the radioactive ligand from its specific binding to the glycine binding site of the NMDA receptor channel determined. The respective triple batches were incubated for 120 minutes at 4° C. and then harvested to determine the radioactive ligands bound to the membrane homogenate by filtration through glass fiber filter mats (GF/B). […]

Test [2] concerns formalin-induced nociception. As to the kind of experiment: Formalin test, rat (second/late phase). As to conditions: i.p., 21.5 mg/kg, late phase. Type of test: in vivo. On the procedure: Experiments to determine the antinociceptive activity of the compounds according to the invention of Formula I were carried out in the formalin test on male rats (Sprague-Dawley, 150-170 g).
In the formalin test, the first (early) phase (0-15 min after formalin injection) was distinguished from the second (late) phase (15-60 min after formalin injection) (D. Dubuisson, S. G. Dennis, Pain 4, 161-174 (1977)). The early phase, as a direct reaction to the formalin injection, represents a model for acute pain while the late phase is considered as a model for persistent (chronic) pain (T. J. Coderre, J. Katz, A. L. Vaccarino, R. Melzack, Pain, Vol. 52, p. 259,1993).
The compounds according to the invention were investigated in the second phase of the formalin test to obtain information about the effects of substances in chronic/inflammatory pain.
A nociceptive reaction was induced in freely moving experimental animals by a single subcutaneous formalin injection (50 μl, 5%) into the dorsal side of the back right paw, the nociceptive reaction being portrayed by the following behavioral parameters: lifting and holding the respective paw (Score 1), shaking and twitching (Score 2), licking and biting (Score 3). The different behavioral patterns triggered by the formalin injection were recorded continuously by observing the animals in the late phase of the formalin test and were weighted differently in an evaluation. Normal behavior in which the animal loads all four paws uniformly was recorded as score 0. The moment of administration prior to the formalin injection was selected according to the method of administration of the compounds according to the invention (intraperitoneal: 15 min, intravenous: 5 min). The described behavioral patterns (Score 1 to 3) in the animals are reduced and possibly even eliminated after injection of substances which have an antinociceptive effect in the formalin test. A comparisom was made with control animals which had received vehicles (solvents) prior to formalin administration. The nociceptive behavior was calculated as a so-called pain rate (PR). The various behavioral parameters received a different weighting (Factor 0, 1, 2, 3). Calculation took place at partial intervals of 3 min according to the following formula:
Substance and vehicle groups include n=10 animals in each case. The effect of the substance was determined as a percentage change versus control on the basis of the PR calculations. The ED50 calculations were made by regression analysis.

As to `CCOC(=O)C1CC(c2cccc(Cl)c2)c2c(Cl)cc(Cl)cc2N1` (stereo not shown) [Example 34, 5,7-dichloro-4-(3-chlorophenyl)-1,2,3,4-tetrahydroquinoline-2-carboxylic Acid Ethyl Ester], in test [1], the inhibition at 10 µM was 32%. The “% inhibition of formalin-induced nociception” value in test [2] is 53.1%.
In the same order, the values of `CCOC(=O)C1CC(c2ccc(Cl)cc2)c2c(Cl)cc(Cl)cc2N1` (stereo not shown) [Example 35, 5,7-dichloro-4-(4-chlorophenyl)-1,2,3,4-tetrahydroquinoline-2-carboxylic Acid Ethyl Ester] are 32% and 21.9%.
